Experimental data from patent US20260347372A1, “SMALL MOLECULE INHIBITORS OF KRAS G12D MUTANT” (MERCK SHARP & DOHME LLC, priority 2023, published 2026).

Columns and labels:
[1] = biological target: KRAS G12C (Homo sapiens, UniProt P01116, C118S/C51S/C80L/G12C); experiment: SOS-catalyzed nucleotide exchange assay, KRAS G12C (Procedure A); format: biochemical; conditions: GNE
Excerpt: (§1) Procedure for SOS-Catalyzed Nucleotide Exchange Assay for KRAS-WT, G12C/D/V, G13D, HRAS, and NRAS (Procedure A)
(§2) Recombinant KRAS-G12C protein used in this assay has an additional triple mutation (C51S/C80L/C118S). Whereas KRAS-WT, G12D/V, G13D, HRAS and NRAS are in context of their WT protein sequence background. Specifically, the SOS-catalyzed nucleotide exchange assay utilizes a preformed TR-FRET complex containing a specific biotinylated RAS protein (KRAS-WT, G12C/V/D, G13D, HRAS, NRAS; described above) with Bodipy-GDP, and Terbium-streptavidin. Compounds are preincubated with this complex for 60 minutes. Subsequently, recombinant human SOS protein and unlabeled GTP are added to initiate the exchange reaction. Small molecule inhibitors stabilize the Bodipy-GDP complex whereas the untreated protein rapidly exchanges Bodipy-GDP for unlabeled GTP resulting in reduced TR-FRET signal.
(§3) To assemble the preformed TR-FRET complexes, each biotinylated RAS protein is diluted to 2 μM in an EDTA Buffer (20 mM HEPES pH 7.5, 50 mM sodium chloride, 10 mM EDTA, and 0.01% Tween) and incubated at room temperature for one hour. This mixture is then further diluted to 90 nM in an Assay Buffer (20 mM HEPES pH 7.5, 150 mM sodium chloride, 10 mM magnesium chloride, and 0.005% Tween) containing 15 nM of Terbium-Streptavidin (Invitrogen, catalog #PV3577) and 900 nM of Bodipy-GDP (Invitrogen, catalog #G22360) and incubated at room temperature for six hours. It should be noted that this preformed TR-FRET complex for each of the RAS protein were made ahead of time, aliquoted and stored at −80° C. until the day of the experiment.
(§4) Each test compound (10 mM stock in DMSO) is diluted in DMSO to make a final-10-point, 3-fold dilution and is acoustically dispensed into a 384-well assay plate (Corning, catalog #3820) using an Echo 550 (Labcyte). Each well of the assay plate receives 3 μL of a specific 3×RAS preformed TR-FRET complex and 3 μL of Assay Buffer and is incubated at room temperature for 60 minutes (preincubation time). Each well then receives 3 μL of 3× recombinant human SOS protein and GTP (Sigma, G8877) in Assay Buffer and is incubated at room temperature for 30 minutes (G13D), 60 minutes (KRAS WT/G12C/D, H/NRAS) or 90 minutes for G12V. The final reaction in each well of 9 μL consists of 3 mM GTP, specific Ras and SOS proteins in the following concentrations: KRAS-G12C/SOS=3 nM/40 nM, KRAS-WT and G12D/SOS=1 nM/40 nM, KRAS-G12V/SOS=1.25 nM/160 nM, KRAS-G13D/SOS=1.25 nM/0 nM, HRAS and NRAS=1.25 nM/40 nM.
(§5) The time-resolved fluorescence resonance energy transfer (TR-FRET) signal is measured on an Envision (PerkinElmer) plate reader: Excitation filter=340 nm; emission1=495 nm; emission2=520 nm; dichroic mirror=D400/D505; delay time=[…]. The signal of each well is determined as the ratio of the emission at 520 nm to that at 495 nm. Percent effect of each well is determined after normalization to control wells containing DMSO (no effect) or a saturating concentration of inhibitor (max effect). The apparent effect as a function of compound concentration is fit to a four-parameter logistic equation.
(§6) For Example No. 14, nucleotide exchange assays for KRAS G12D, WT, G12C, and G12V were performed according to Procedure B. All the other compounds were tested according to Procedure A.

[2] = biological target: KRAS G13D (Homo sapiens, UniProt P01116, G13D); experiment: SOS-catalyzed nucleotide exchange assay, KRAS G13D (Procedure A); format: biochemical; conditions: GNE
Excerpt: as §1, §2, §3, §4, §5, §6

[3] = biological target: NRAS (Homo sapiens, UniProt P01111); experiment: SOS-catalyzed nucleotide exchange assay, NRAS (Procedure A); format: biochemical; conditions: GNE
Excerpt: as §1, §2, §3, §4, §5, §6

[4] = biological target: HRAS (Homo sapiens, UniProt P01112); experiment: SOS-catalyzed nucleotide exchange assay, HRAS (Procedure A); format: biochemical; conditions: GNE
Excerpt: as §1, §2, §3, §4, §5, §6

[5] = biological target: KRAS G12D (Homo sapiens, UniProt P01116, G12D); experiment: SOS-catalyzed nucleotide exchange assay, KRAS G12D (Procedure A); format: biochemical; conditions: guanine nucleotide exchange (GNE)
Method in brief: (§7)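 60 min cpd preinc. w/ RAS–Bodipy-GDP–Tb-SA complex; + hSOS/GTP (3 mM final), RT. G12C 3 nM RAS/40 nM SOS; WT, G12D 1 nM/40 nM; 60 min rxn. G13D 1.25 nM, no SOS, 30 min rxn. HEPES pH 7.5, 10 mM MgCl2. Ratio 520/495, norm. to DMSO/max-inhibitor ctrls.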

[6] = biological target: T1, AsPC-1 cells (Homo sapiens, UniProt P01116, G12D); experiment: Cellular phospho-ERK assay, AsPC-1 cells (KRAS G12D); format: cell-based; conditions: 2 hours, read-out: AsPC1 pERK IC50
T1 construct: p-ERK/total ERK AlphaSureFire read-out
Method in brief: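 Compound was titrated 10-point in 3-fold steps (top 30 μM) on KRAS G12D homozygous pancreatic lines PANC08.13 and AsPC-1 for 2 h at 37 °C. The p-ERK/total ERK ratio was measured by multiplex AlphaLISA SureFire and fitted with a 4-parameter logistic model to give IC50.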

[7] = biological target: KRAS WT (Homo sapiens, UniProt P01116); experiment: SOS-catalyzed nucleotide exchange assay, KRAS WT (Procedure A); format: biochemical; conditions: GNE
Method in brief: as §7

[8] = biological target: KRAS G12V (Homo sapiens, UniProt P01116, G12V); experiment: SOS-catalyzed nucleotide exchange assay, KRAS G12V (Procedure A); format: biochemical; conditions: GNE
Method in brief: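 Biotinylated KRAS G12V was loaded with Bodipy-GDP alongside Terbium-streptavidin to form a TR-FRET complex, which was preincubated with compounds for 60 minutes in 384-well plates. Human SOS protein and unlabeled GTP were then added for 90 minutes, giving final concentrations of 1.25 nM KRAS-G12V, 160 nM SOS and 3 mM GTP. The 520/495 nm emission ratio was read on an Envision.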

KRAS G12C, sequence (P01116 with tags, fused parts or gaps isoform P01116-2 G12C/C51S/C80L/C118S): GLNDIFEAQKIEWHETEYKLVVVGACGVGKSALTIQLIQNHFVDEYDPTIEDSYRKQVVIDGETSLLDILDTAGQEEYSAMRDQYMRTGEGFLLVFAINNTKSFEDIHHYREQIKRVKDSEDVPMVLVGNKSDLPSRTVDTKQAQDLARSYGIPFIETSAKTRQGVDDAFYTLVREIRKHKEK
KRAS G13D, sequence (P01116 with tags, fused parts or gaps isoform P01116-2 G13D): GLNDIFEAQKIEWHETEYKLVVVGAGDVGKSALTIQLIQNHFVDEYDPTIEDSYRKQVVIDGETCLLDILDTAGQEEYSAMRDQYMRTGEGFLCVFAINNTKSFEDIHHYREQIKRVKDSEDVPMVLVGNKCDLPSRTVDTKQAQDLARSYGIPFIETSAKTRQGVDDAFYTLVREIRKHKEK
NRAS, sequence (P01111 with tags, fused parts or gaps): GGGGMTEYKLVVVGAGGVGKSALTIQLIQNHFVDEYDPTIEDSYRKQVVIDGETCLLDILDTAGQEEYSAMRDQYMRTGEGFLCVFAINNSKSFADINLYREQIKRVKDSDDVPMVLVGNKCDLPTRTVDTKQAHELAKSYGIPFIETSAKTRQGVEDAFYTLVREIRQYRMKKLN
KRAS G12D, sequence (P01116 with tags, fused parts or gaps isoform P01116-2 G12D): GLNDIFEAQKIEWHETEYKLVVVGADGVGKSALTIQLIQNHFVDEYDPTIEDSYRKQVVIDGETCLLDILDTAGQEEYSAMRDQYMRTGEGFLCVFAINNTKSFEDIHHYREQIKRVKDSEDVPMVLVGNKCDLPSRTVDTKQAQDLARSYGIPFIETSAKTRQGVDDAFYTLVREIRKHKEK
HRAS, sequence (P01112 with tags, fused parts or gaps): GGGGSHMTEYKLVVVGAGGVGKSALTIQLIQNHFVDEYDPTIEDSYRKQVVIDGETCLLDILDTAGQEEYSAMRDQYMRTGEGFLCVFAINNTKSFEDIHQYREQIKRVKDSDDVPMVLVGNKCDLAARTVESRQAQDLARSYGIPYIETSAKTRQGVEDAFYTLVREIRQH
T1 sequence (P01116 1-188 isoform P01116-2 G12D): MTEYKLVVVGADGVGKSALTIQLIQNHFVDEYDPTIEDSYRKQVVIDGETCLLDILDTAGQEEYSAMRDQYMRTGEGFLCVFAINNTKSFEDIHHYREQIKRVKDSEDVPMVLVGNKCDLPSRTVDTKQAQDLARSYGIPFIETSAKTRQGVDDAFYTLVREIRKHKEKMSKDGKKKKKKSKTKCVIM
KRAS G12V, sequence (P01116 with tags, fused parts or gaps isoform P01116-2 G12V): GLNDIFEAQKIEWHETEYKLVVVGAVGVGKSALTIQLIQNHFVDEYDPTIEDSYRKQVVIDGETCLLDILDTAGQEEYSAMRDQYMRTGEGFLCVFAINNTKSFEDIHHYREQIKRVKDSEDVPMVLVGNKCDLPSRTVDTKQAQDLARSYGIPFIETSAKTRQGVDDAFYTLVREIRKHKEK
KRAS WT, sequence (P01116 with tags, fused parts or gaps isoform P01116-2): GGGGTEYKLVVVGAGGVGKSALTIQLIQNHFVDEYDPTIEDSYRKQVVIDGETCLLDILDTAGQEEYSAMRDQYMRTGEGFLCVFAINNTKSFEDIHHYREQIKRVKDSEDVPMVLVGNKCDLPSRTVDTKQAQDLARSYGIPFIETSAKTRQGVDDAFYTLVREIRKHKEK

IC50 [1]	IC50 [2]	IC50 [3]	IC50 [4]	IC50 [5]	IC50 [6]	IC50 [7]	IC50 [8]	SMILES
0.412 µM	0.287 µM	> 11.1 µM	> 11.1 µM	0.00805 µM	0.296 µM	1.16 µM	1.24 µM	F[C@H]1CN2CCC[C@@]2(COc2nc(N3C[C@H]4CC[C@@H](C3)N4)c3c(n2)sc2c(-c4c(C5CC5)c(Cl)cc5[nH]ncc45)nccc23)C1 [Ex-20, 4-((1R,5S)-3,8-diazabicyclo[3.2.1]octan-3-yl)-8-(6-chloro-5-cyclopropyl-1H-indazol-4-yl)-2-(((2R,7aS)-2-fluorotetrahydro-1H-pyrrolizin-7a(5H)-yl)methoxy)pyrido[4′,3′:4,5]thieno[2,3-d]pyrimidine]
0.457 µM	0.486 µM	> 11.1 µM	> 11.1 µM	0.00789 µM	0.612 µM	2.8 µM	5 µM	CN(C)C[C@@]1(COc2nc(N3C[C@H]4CC[C@@H](C3)N4)c3c(n2)sc2c(-c4c(C5CC5)c(Cl)cc5[nH]ncc45)nccc23)CC1(F)F [Ex-21, 1-((1R)-1-(((4-((1R,5S)-3,8-diazabicy-clo[3.2.1]octan-3-yl)-8-(6-chloro-5-cyclopropyl-1H-indazol-4-yl)pyrido [4′,3′:4,5]thieno [2,3-d]pyrimidin-2-yl)oxy)methyl)-2,2-difluoro-cyclopropyl)-N,N-dimethyl-methanamine]
> 11.1 µM	9.11 µM	> 11.1 µM	> 11.1 µM	2.73 µM	10 µM	> 11.1 µM	> 11.1 µM	Clc1cc2[nH]ncc2c(-c2nccc3c2sc2nc(OCC45CCOC(CO4)C5)nc(N4C[C@H]5CC[C@@H](C4)N5)c23)c1C1CC1 [Ex-22, 2-((2,6-dioxabicy-clo[3.2.1]octan-5-yl)methoxy)-4-((1R,5S)-3,8-diazabicy-clo[3.2.1]octan-3-yl)-8-(6-chloro-5-cyclopropyl-1H-indazol-4-yl)pyrido [4′,3′:4,5]thi-eno[2,3-d]pyrimidine]
> 11.1 µM	> 11.1 µM	> 11.1 µM	> 11.1 µM	1.97 µM	8.11 µM	> 11.1 µM	> 11.1 µM	CC12CC(COc3nc(N4C[C@H]5CC[C@@H](C4)N5)c4c(n3)sc3c(-c5c(C6CC6)c(Cl)cc6[nH]ncc56)nccc34)(CO1)C2 [Ex-23, 4-((1R,5S)-3,8-diazabicy-clo[3.2.1]octan-3-yl)-8-(6-chloro-5-cyclopropyl-1H-indazol-4-yl)-2-(((1R,4r)-1-methyl-2-oxabicy-clo[2.1.1]hex-an-4-yl)methoxy)pyri-do[4′,3′:4,5]thi-eno[2,3-d]pyrimi-dine]
> 11.1 µM	> 11.1 µM	> 11.1 µM	> 11.1 µM	5.23 µM	18.4 µM	> 11.1 µM	> 11.1 µM	OC1C2CCCC1(COc1nc(N3C[C@H]4CC[C@@H](C3)N4)c3c(n1)sc1c(-c4c(C5CC5)c(Cl)cc5[nH]ncc45)nccc13)CC2 (stereo partly drawn) [Ex-24, 1-(((4-((1R,5S)-3,8-diazabicy-clo[3.2.1]octan-3-yl)-8-(6-chloro-5-cyclopropyl-1H-indazol-4-yl)pyri-do[4′,3′:4,5]thi-eno[2,3-d]pyrimidin-2-yl)oxy)methyl)bi-cyclo[3.2.1]oc-tan-8-ol]
> 11.1 µM	> 11.1 µM	> 11.1 µM	> 11.1 µM	1.02 µM	> 30 µM	> 11.1 µM	> 11.1 µM	Cc1cc2[nH]ncc2c(-c2nccc3c2sc2nc(OC[C@]4(C#N)C[C@H]4S(C)(=O)=O)nc(N4C[C@H]5CC[C@@H](C4)N5)c23)c1C(F)(F)F [Ex-32, (1R,2R)-1-(((4-((1R,5S)-3,8-diazabicyclo[3.2.1]octan-3-yl)-8-(6-methyl-5-(trifluoromethyl)-1H-indazol-4-yl)pyrido[4′,3′:4,5]thieno[2,3-d]pyrimidin-2-yl)oxy)methyl)-2-(methylsulfonyl)cyclopropane-1-carbonitrile]
> 11.1 µM	> 11.1 µM	> 11.1 µM	> 11.1 µM	7.97 µM	20.2 µM	> 11.1 µM	> 11.1 µM	Cc1cc2[nH]ncc2c(-c2nccc3c2sc2nc(OCC4(S(C)(=O)=O)CC4)nc(N4C[C@H]5CC[C@@H](C4)N5)c23)c1C(F)(F)F [Ex-33, 4-((1R,5S)-3,8-diazabicyclo[3.2.1]octan-3-yl)-8-(6-methyl-5-(trifluoromethyl)-1H-indazol-4-yl)-2-((1-(methylsulfonyl)cyclopropyl)meth-oxy)pyrido[4′,3′:4,5]thieno[2,3-d]pyrimidine]
> 11.1 µM	> 11.1 µM	> 11.1 µM	> 11.1 µM	6.7 µM	> 30 µM	> 11.1 µM	> 11.1 µM	Cc1cc2[nH]ncc2c(-c2nccc3c2sc2nc(OCC4(C#N)CCCO4)nc(N4C[C@H]5CC[C@@H](C4)N5)c23)c1C(F)(F)F (stereo partly drawn) [Ex-34, 2-(((4-((1R,5S)-3,8-diazabicyclo[3.2.1]octan-3-yl)-8-(6-methyl-5-(trifluoromethyl)-1H-indazol-4-yl)pyrido[4′,3′:4,5]thieno[2,3-d]pyrimidin-2-yl)oxy)methyl)tetrahydrofuran-2-carbonitrile]
> 11.1 µM	> 11.1 µM	> 11.1 µM	> 11.1 µM	1.43 µM	> 30 µM	> 11.1 µM	> 11.1 µM	Cc1cc2[nH]ncc2c(-c2nccc3c2sc2nc(OC[C@H]4C[C@H](S(C)(=N)=O)C4)nc(N4C[C@H]5CC[C@@H](C4)N5)c23)c1C(F)(F)F (stereo partly drawn) [Ex-35, (1S)-((1R,3S)-3-(((4-((1R,5S)-3,8-diazabicyclo[3.2.1]octan-3-yl)-8-(6-methyl-5-(trifluoromethyl)-1H-indazol-4-yl)pyrido[4′,3′:4,5]thieno[2,3-d]pyrimidin-2-yl)oxy)methyl)cyclobutyl)(imino) (methyl)-λ^6-sulfanone]
